Patent US9408826B2, “Isoflavone anti-viral compounds” (Kineta, Inc., priority 2010, dated 2016)

System: Murine Encephalomyocarditis virus (EMCV)
Assay: EMCV antiviral assay (cell viability by MTS)
Assay type: cell-based
Conditions: Huh7 cells; for Cell viability post-infection: EMCV 250 pfu, MTS
Experimental: Huh7 cells were grown under normal growth conditions and treated with the indicated amount of drug in media containing 0.5% DMSO. The cells were grown in the presence of drug for 5 hours and then infected with 250 pfu Murine Encephalomyocarditis virus (EMCV) for example obtained from ATCC #VR-129B. Infected cells were grown for an additional 18 hours and then cell viability was measured using an MTS assay. Negative control cells were treated with buffer alone containing 0.5% DMSO. Interferon treatment was used as a positive control for virus inhibition and was added similar to drug treatments at a final concentration of 10 IU/mL for example Interferon-α: Intron A, from Schering-Plough. Cell viability was measured using an MTS assay such as; CellTiter 96® AQueous One Solution Cell Proliferation Assay (MTS), from Promega #G3580.

CS(=O)(=O)Oc1ccc2c(=O)c(-c3ccc(Br)cc3)coc2c1 [KIN101, [3-(4-bromophenyl)-4-oxo-chromen-7-yl] methanesulfonate]
Cell viability post-infection (5 μM drug): ~0.7
Cell viability post-infection (10 μM drug): ~1.2
Cell viability post-infection (20 μM drug): ~1.45
Protection of cell viability following infection with EMCV (in words): protective of cell viability
